Test results published in patent publication US8192962B2, “Processes for detecting toxic substances” (Daikin Industries, Ltd., priority 2001, dated 2012).

Tested on: Unknown protein yeast genes
Test: DNA chip mRNA expression in yeast, unknown protein yeast genes (Table 1)
Format: cell-based, Saccharomyces cerevisiae S288C
In short: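 In this screen, yeast in logarithmic growth are challenged for two hours with a toxic substance at a non-lethal inhibitory concentration. Their mRNA, converted to Cy3- or Cy5-labeled cDNA, hybridizes at 65° C. to a chip spanning every yeast gene, and expression is expressed as a ratio to untreated cells.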

CCCCCCCCCCCCc1ccc(S(=O)(=O)[O-])cc1.[Na+] [(17), sodium dodecylbenzosulfonate]
The level of expressed mRNA in the presence of chemical substance/The level of expressed mRNA in the absence of chemical substance (yeast gene YAL053W, incubated two hours with chemical substance): 1.2 | The level of expressed mRNA in the presence of chemical substance/The level of expressed mRNA in the absence of chemical substance (yeast gene YBL048W): 1.3 | The level of expressed mRNA in the presence of chemical substance/The level of expressed mRNA in the absence of chemical substance (yeast gene YBL107C): 0.9 | The level of expressed mRNA in the presence of chemical substance/The level of expressed mRNA in the absence of chemical substance (yeast gene YDL072C, incubated two hours with chemical substance): 1.6 | The level of expressed mRNA in the presence of chemical substance/The level of expressed mRNA in the absence of chemical substance (yeast gene YDL204W, incubated two hours with chemical substance): 1.8 | The level of expressed mRNA in the presence of chemical substance/The level of expressed mRNA in the absence of chemical substance (yeast gene YDL222C, incubated two hours with chemical substance): 0.9 | The level of expressed mRNA in the presence of chemical substance/The level of expressed mRNA in the absence of chemical substance (yeast gene YDR330W, incubated two hours with chemical substance): 1.5 | The level of expressed mRNA in the presence of chemical substance/The level of expressed mRNA in the absence of chemical substance (yeast gene YDR411C, incubated two hours with chemical substance): 1.5 | The level of expressed mRNA in the presence of chemical substance/The level of expressed mRNA in the absence of chemical substance (yeast gene YDR511W, incubated two hours with chemical substance): 1.3 | The level of expressed mRNA in the presence of chemical substance/The level of expressed mRNA in the absence of chemical substance (yeast gene YDR545W, incubated two hours with chemical substance): 0.9 | The level of expressed mRNA in the presence of chemical substance/The level of expressed mRNA in the absence of chemical substance (yeast gene YEL001C, incubated two hours with chemical substance): 0.7 | The level of expressed mRNA in the presence of chemical substance/The level of expressed mRNA in the absence of chemical substance (yeast gene YER004W, incubated two hours with chemical substance): 1.4 | The level of expressed mRNA in the presence of chemical substance/The level of expressed mRNA in the absence of chemical substance (yeast gene YER035W, incubated two hours with chemical substance): 2.2 | The level of expressed mRNA in the presence of chemical substance/The level of expressed mRNA in the absence of chemical substance (yeast gene YER079W, incubated two hours with chemical substance): 1.0 | The level of expressed mRNA in the presence of chemical substance/The level of expressed mRNA in the absence of chemical substance (yeast gene YER106W, incubated two hours with chemical substance): 0.8 | The level of expressed mRNA in the presence of chemical substance/The level of expressed mRNA in the absence of chemical substance (yeast gene YER158C, incubated two hours with chemical substance): 1.6 | The level of expressed mRNA in the presence of chemical substance/The level of expressed mRNA in the absence of chemical substance (yeast gene YER163C, incubated two hours with chemical substance): 1.2 | The level of expressed mRNA in the presence of chemical substance/The level of expressed mRNA in the absence of chemical substance (yeast gene YER175C, incubated two hours with chemical substance): 0.9 | The level of expressed mRNA in the presence of chemical substance/The level of expressed mRNA in the absence of chemical substance (yeast gene YFL006W, incubated two hours with chemical substance): 1.0 | The level of expressed mRNA in the presence of chemical substance/The level of expressed mRNA in the absence of chemical substance (yeast gene YFL010C, incubated two hours with chemical substance): 1.9 | The level of expressed mRNA in the presence of chemical substance/The level of expressed mRNA in the absence of chemical substance (yeast gene YFL024C): 0.9 | The level of expressed mRNA in the presence of chemical substance/The level of expressed mRNA in the absence of chemical substance (yeast gene YFL032W, incubated two hours with chemical substance): 1.7 | The level of expressed mRNA in the presence of chemical substance/The level of expressed mRNA in the absence of chemical substance (yeast gene YGL037C, incubated two hours with chemical substance): 1.3 | The level of expressed mRNA in the presence of chemical substance/The level of expressed mRNA in the absence of chemical substance (yeast gene YGL047W, incubated two hours with chemical substance): 1.1 | The level of expressed mRNA in the presence of chemical substance/The level of expressed mRNA in the absence of chemical substance (yeast gene YGL053W, incubated two hours with chemical substance): 2.2 | The level of expressed mRNA in the presence of chemical substance/The level of expressed mRNA in the absence of chemical substance (yeast gene YGL121C): 2.7 | The level of expressed mRNA in the presence of chemical substance/The level of expressed mRNA in the absence of chemical substance (yeast gene YGL199C, incubated two hours with chemical substance): 1.2 | The level of expressed mRNA in the presence of chemical substance/The level of expressed mRNA in the absence of chemical substance (yeast gene YGR101W, incubated two hours with chemical substance): 1.0 | The level of expressed mRNA in the presence of chemical substance/The level of expressed mRNA in the absence of chemical substance (yeast gene YGR110W): 0.9 | The level of expressed mRNA in the presence of chemical substance/The level of expressed mRNA in the absence of chemical substance (yeast gene YGR130C, incubated two hours with chemical substance): 1.3 | The level of expressed mRNA in the presence of chemical substance/The level of expressed mRNA in the absence of chemical substance (yeast gene YGR154C, incubated two hours with chemical substance): 1.0 | The level of expressed mRNA in the presence of chemical substance/The level of expressed mRNA in the absence of chemical substance (yeast gene YGR221C, incubated two hours with chemical substance): 1.3 | The level of expressed mRNA in the presence of chemical substance/The level of expressed mRNA in the absence of chemical substance (yeast gene YHR138C, incubated two hours with chemical substance): 5.0 | The level of expressed mRNA in the presence of chemical substance/The level of expressed mRNA in the absence of chemical substance (yeast gene YHR199C, incubated two hours with chemical substance): 1.1 | The level of expressed mRNA in the presence of chemical substance/The level of expressed mRNA in the absence of chemical substance (yeast gene YIL023C, incubated two hours with chemical substance): 1.2 | The level of expressed mRNA in the presence of chemical substance/The level of expressed mRNA in the absence of chemical substance (yeast gene YIL041W, incubated two hours with chemical substance): 0.8 | The level of expressed mRNA in the presence of chemical substance/The level of expressed mRNA in the absence of chemical substance (yeast gene YIL087C, incubated two hours with chemical substance): 1.7 | The level of expressed mRNA in the presence of chemical substance/The level of expressed mRNA in the absence of chemical substance (yeast gene YJL057C, incubated two hours with chemical substance): 1.4 | The level of expressed mRNA in the presence of chemical substance/The level of expressed mRNA in the absence of chemical substance (yeast gene YJL066C, incubated two hours with chemical substance): 1.4 | The level of expressed mRNA in the presence of chemical substance/The level of expressed mRNA in the absence of chemical substance (yeast gene YJL082W, incubated two hours with chemical substance): 0.6 | The level of expressed mRNA in the presence of chemical substance/The level of expressed mRNA in the absence of chemical substance (yeast gene YJL151C, incubated two hours with chemical substance): 3.5 | The level of expressed mRNA in the presence of chemical substance/The level of expressed mRNA in the absence of chemical substance (yeast gene YJL152W, incubated two hours with chemical substance): 2.5 | The level of expressed mRNA in the presence of chemical substance/The level of expressed mRNA in the absence of chemical substance (yeast gene YJL161W, incubated two hours with chemical substance): 1.9 | The level of expressed mRNA in the presence of chemical substance/The level of expressed mRNA in the absence of chemical substance (yeast gene YJL171C, incubated two hours with chemical substance): 3.6 | The level of expressed mRNA in the presence of chemical substance/The level of expressed mRNA in the absence of chemical substance (yeast gene YJR008W, incubated two hours with chemical substance): 1.5 | The level of expressed mRNA in the presence of chemical substance/The level of expressed mRNA in the absence of chemical substance (yeast gene YJR054W, incubated two hours with chemical substance): 0.9 | The level of expressed mRNA in the presence of chemical substance/The level of expressed mRNA in the absence of chemical substance (yeast gene YKL071W): 1.0 | The level of expressed mRNA in the presence of chemical substance/The level of expressed mRNA in the absence of chemical substance (yeast gene YKL086W, incubated two hours with chemical substance): 0.9 | The level of expressed mRNA in the presence of chemical substance/The level of expressed mRNA in the absence of chemical substance (yeast gene YKL151C, incubated two hours with chemical substance): 1.4 | The level of expressed mRNA in the presence of chemical substance/The level of expressed mRNA in the absence of chemical substance (yeast gene YKL153W, incubated two hours with chemical substance): 0.9
